Measurements published in patent US20090181986A1, “SUBSTITUTED HETEROCYCLIC COMPOUNDS” (priority 2007, published 2009).

Experiments:
[1] = target: wild-type human cardiac sodium channel, hNav1.5 (Homo sapiens, UniProt Q14524); assay: Late INa screening assay (PatchXpress whole cell patch clamp, late current generated with Tefluthrin or ATX II); format: cell-based; settings: test compound at 10 μM; for inhibition at 10 µM: read-out: Late INa % blk
Description: The late sodium current (Late INa) and peak sodium current (Peak INa) assays are performed on an automated electrophysiology platform, PatchXpress 7000A (MDS Analytical Technologies, Sunnyvale, Calif.), which uses the whole cell patch clump technique to measure currents through the cell membrane of up to 16 cells at a time. The assay uses an HEK293 (human embryonic kidney) cell line heterologously expressing the wild-type human cardiac sodium channel, hNav1.5, purchased from Millipore (Billerica, Mass.). No beta subunits were coexpressed with the Na channel alpha subunit. […] Experiments are carried out at 24-27° C.
For both the Late INa and Peak INa assays, series resistance compensation is set to 50% and whole-cell compensation is performed automatically. […] Currents through open sodium channels are automatically recorded and stored in the DataXpress2 database (MDS Analytical Technologies, Sunnyvale, Calif.). Analysis is performed using DataXpress2 analysis software and data are compiled in Excel.
Compound stocks are routinely made in glass vials to 10 mM in dimethyl sulfoxide (DMSO). In some cases, when compounds are not soluble in DMSO, they are made in 100% ethanol. Stocks are sonicated as necessary. The extracellular solution for screening Late INa is composed of: 140 mM NaCl, 4 mM KCl, 1.8 mM CaCl2, 0.75 mM MgCl2, and 5 mM HEPES with pH adjusted to 7.4 using NaOH. The extracellular solution for screening Peak INa is composed of: 20 mM NaCl, 120 mM N-methyl-D glucamine, 4 mM KCl, 1.8 mM CaCl2, 0.75 mM MgCl2, and 5 mM HEPES with pH adjusted to 7.4 using HCl. The intracellular solution used to perfuse the inside of the cells for both the Late INa and Peak INa assays contains: 120 mM CsF, […], 5 mM EGTA, 5 mM HEPES and pH adjusted to 7.4 with CsOH. […] The ONa extracellular solution used at the end of each experiment for the Late INa and Peak INa assays to measure baseline current contains: 140 mM N-methyl-D-glucamine; 4 mM KCl; 1.8 mM CaCl2; 0.75 mM MgCl2; 5 mM HEPES and pH was adjusted to 7.4 with HCl.
For the Late INa assay, sodium channels are activated every 10 seconds (0.1 Hz) by depolarizing the cell membrane to −20 mV for 250 milliseconds (ms) from a holding potential of −120 mV.
All compounds are tested to determine their activity in blocking the late sodium current. Late INa current is generated by adding 10 μM Tefluthrin (pyrethroid) to the extracellular solution while recording Na currents. […] For some experiments, 50 nM ATX II (sea anemone toxin), another late INa activator, was used to generate the late component. […] Baseline current in the absence of Na^+ ions is measured at the end of each experiment (after two additions of 0 Na solution—see above) and is used to calculate the percent block by compound.

[2] = target: hERG potassium channel (Homo sapiens, UniProt Q12809); assay: hERG screening assay (PatchXpress patch clamp, CHO cells)
hERG potassium channel, sequence (Q12809 whole entry): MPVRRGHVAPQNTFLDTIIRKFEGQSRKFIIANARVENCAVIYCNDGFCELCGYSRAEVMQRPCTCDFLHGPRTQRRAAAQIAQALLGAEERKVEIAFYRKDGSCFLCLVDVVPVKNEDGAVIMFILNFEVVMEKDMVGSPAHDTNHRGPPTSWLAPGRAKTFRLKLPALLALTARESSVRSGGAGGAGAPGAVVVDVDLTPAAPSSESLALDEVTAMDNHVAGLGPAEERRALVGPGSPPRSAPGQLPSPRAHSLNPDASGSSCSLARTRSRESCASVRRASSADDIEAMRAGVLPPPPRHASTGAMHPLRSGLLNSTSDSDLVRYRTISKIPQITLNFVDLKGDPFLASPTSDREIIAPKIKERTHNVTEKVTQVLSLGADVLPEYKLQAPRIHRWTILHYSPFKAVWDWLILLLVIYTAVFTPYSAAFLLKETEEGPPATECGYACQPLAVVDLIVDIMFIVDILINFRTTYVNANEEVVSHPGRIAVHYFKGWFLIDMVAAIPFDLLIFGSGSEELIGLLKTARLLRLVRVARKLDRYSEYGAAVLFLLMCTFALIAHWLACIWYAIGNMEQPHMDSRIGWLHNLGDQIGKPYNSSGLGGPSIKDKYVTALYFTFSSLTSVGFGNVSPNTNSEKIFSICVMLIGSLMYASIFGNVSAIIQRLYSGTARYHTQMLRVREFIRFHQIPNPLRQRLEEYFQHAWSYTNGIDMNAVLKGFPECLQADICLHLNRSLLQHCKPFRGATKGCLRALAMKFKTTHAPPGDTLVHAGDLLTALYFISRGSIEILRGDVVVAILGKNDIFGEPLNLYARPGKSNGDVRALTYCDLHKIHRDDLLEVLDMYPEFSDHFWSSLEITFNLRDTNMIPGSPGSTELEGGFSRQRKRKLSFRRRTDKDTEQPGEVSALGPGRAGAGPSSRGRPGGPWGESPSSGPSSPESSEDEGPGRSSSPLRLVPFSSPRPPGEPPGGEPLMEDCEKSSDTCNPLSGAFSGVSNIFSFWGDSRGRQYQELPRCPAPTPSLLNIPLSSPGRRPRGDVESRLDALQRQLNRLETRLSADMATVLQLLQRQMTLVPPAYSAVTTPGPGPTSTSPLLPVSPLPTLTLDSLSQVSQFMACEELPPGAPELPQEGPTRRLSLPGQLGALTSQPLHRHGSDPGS

wild-type human cardiac sodium channel, hNav1.5, sequence (Q14524 whole entry): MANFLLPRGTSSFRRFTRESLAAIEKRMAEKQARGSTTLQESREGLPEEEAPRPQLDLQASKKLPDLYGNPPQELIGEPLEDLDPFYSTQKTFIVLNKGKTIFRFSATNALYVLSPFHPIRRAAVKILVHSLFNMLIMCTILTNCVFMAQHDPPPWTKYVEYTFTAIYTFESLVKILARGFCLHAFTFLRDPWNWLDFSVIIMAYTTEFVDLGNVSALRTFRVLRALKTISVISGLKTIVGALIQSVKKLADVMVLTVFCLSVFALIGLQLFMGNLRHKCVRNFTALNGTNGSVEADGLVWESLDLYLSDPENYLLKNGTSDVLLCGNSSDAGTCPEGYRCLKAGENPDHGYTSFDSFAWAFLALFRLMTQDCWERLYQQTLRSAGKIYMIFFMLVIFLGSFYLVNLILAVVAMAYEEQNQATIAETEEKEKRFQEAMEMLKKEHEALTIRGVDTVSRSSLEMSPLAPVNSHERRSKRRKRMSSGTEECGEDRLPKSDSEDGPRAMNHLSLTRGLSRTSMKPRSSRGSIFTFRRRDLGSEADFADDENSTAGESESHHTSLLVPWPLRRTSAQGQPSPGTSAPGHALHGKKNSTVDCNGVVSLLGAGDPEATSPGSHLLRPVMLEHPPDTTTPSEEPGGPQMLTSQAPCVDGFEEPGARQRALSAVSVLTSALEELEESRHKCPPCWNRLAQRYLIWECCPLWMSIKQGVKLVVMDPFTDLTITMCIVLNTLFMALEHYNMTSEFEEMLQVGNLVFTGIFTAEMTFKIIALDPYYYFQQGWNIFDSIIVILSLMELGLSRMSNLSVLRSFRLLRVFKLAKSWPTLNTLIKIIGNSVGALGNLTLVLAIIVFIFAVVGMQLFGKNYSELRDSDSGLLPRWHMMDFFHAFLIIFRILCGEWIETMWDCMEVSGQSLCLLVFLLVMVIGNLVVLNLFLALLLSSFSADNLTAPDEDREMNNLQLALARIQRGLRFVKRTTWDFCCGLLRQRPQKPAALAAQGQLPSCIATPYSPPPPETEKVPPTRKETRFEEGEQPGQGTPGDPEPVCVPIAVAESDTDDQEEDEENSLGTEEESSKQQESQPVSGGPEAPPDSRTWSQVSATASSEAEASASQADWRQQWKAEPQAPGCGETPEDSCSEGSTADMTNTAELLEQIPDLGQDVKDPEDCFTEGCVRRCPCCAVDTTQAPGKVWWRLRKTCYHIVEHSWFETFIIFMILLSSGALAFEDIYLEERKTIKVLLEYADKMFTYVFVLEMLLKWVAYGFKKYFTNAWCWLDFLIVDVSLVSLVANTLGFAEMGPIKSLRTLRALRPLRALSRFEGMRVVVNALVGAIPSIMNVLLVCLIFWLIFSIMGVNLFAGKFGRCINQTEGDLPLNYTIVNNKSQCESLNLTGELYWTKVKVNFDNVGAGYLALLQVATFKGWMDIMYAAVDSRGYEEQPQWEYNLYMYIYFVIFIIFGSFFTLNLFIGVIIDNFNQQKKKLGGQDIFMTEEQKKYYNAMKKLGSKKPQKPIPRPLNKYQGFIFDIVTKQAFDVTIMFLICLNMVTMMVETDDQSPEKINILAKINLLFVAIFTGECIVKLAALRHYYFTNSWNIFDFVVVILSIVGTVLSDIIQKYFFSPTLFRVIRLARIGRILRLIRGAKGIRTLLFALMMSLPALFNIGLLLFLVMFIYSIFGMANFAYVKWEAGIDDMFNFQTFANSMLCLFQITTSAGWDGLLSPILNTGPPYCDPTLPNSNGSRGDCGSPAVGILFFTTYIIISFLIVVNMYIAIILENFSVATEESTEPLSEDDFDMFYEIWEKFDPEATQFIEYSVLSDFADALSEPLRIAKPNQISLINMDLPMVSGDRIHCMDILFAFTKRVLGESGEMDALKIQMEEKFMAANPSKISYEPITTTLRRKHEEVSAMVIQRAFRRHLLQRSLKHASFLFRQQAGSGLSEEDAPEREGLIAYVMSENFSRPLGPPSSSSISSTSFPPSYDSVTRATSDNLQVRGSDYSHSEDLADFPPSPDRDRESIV

Compound | Late INa % blk [1] | inhibition at 10 µM [1] | also measured
H-furo[3,4-e]pyrazolo[3,4-b]pyridin-5(4H)-one [PT-079] | 49% |  | hERG Patch Clamp hERG % blk (1 μM test cmpd) [2]: 57.5%; hERG Patch Clamp hERG % blk (10 μM test cmpd) [2]: 96.5%
CC1=C(C(=O)OCc2ccccc2Br)C(c2c(Cl)cccc2Cl)n2nnnc2N1 (stereo not shown) [PT-531, 2-bromobenzyl 7-(2,6-dichlorophenyl)-5-methyl-4,7-dihydrotetrazolo[1,5-a]pyrimidine-6-carboxylate] |  | 51.2% | 
H-indol-5-yl)phenyl)-5-methyl-4,7-dihydrotetrazolo[1,5-a]pyrimidine-6-carboxylate [PT-505] | 69.6% |  | 
CC1=C(C(=O)OCc2ccccc2Br)C(c2c(Cl)cccc2Cl)n2nnnc2N1Cc1nnn[nH]1 (stereo not shown) [PT-532, 2-bromobenzyl 4-((1H-tetrazol-5-yl)methyl)-7-(2,6-dichlorophenyl)-5-methyl-4,7-dihydrotetrazolo[1,5-a]pyrimidine-6-carboxylate] |  | 35.6% | 
CC1=C(C(=O)O[C@@H](C)c2ccccc2)C(c2cc3ccccc3o2)n2nnnc2N1 (stereo partly drawn) [PT-059, (S)-1-phenylethyl 7-(benzofuran-2-yl)-5-methyl-4,7-dihydrotetrazolo[1,5-a]pyrimidine-6-carboxylate] | 57.7% |  | hERG Patch Clamp hERG % blk (1 μM test cmpd) [2]: 10%; hERG Patch Clamp hERG % blk (10 μM test cmpd) [2]: 66.5%
CC1=C(C(=O)O[C@@H](C)c2ccccc2)C(c2cc3ccccc3s2)n2nnnc2N1 (stereo partly drawn) [PT-056, (S)-1-phenylethyl 7-(benzo[b]thiophen-2-yl)-5-methyl-4,7-dihydrotetrazolo[1,5-a]pyrimidine-6-carboxylate] | 7.8% |  | 
2-methyl-1-phenylpropan-2-yl 5-methyl-7-(naphthalen-1-yl)-4,7-dihydrotetrazolo[1,5-a]pyrimidine-6- [PT-264] | 53.5% |  | 
COC(=O)C1=C(C)Nc2nnnn2C1c1ccccc1 (stereo not shown) [PT-514, methyl 5-methyl-7-phenyl-4,7-dihydrotetrazolo[1,5-a]pyrimidine-6-carboxylate] |  | 6% | 
COC(=O)C1=C(C)N(CC(=O)O)c2nnnn2C1c1sc2ccccc2c1Br (stereo not shown) [PT-533, 2-(7-(3-bromobenzo[b]thiopben-2-yl)-6-(methoxycarbonyl)-5-methyltetrazolo[1,5-a]pyrimidin-4(7H)-yl)acetic acid] | 12% |  | 
CC1=C(C(=O)N2CCC(c3ccc(C(N)=O)cc3)CC2)C(c2cccc3ccccc23)C2=C(CCCC2=O)N1 (stereo not shown) [PT-287, 4-(1-(2-methyl-4-(naphthalen-1-yl)-5-oxo-1,4,5,6,7,8-hexahydroquinoline-3-carbonyl)piperidin-4-yl)benzamide] |  | 8.6% | 
CC1=C(C(=O)OC(C)C)C(c2c[nH]nc2-c2ccc(F)cc2)C(C(=O)OC(C)C)=C(C)N1 [PT-128, diisopropyl 4-(3-(4-fluorophenyl)-1H-pyrazol-4-yl)-2,6-dimethyl-1,4-dihydropyridine-3,5-dicarboxylate] |  | 34.1% | 
COC(=O)c1ccc(C2CCN(C(=O)C3=C(C)NC4=C(C(=O)CCC4)C3c3cccc4ccccc34)CC2)cc1 (stereo not shown) [PT-535, methyl 4-(1-(2-methyl-4-(naphthalen-1-yl)-5-oxo-1,4,5,6,7,8-hexahydroquinoline-3-carbonyl)piperidin-4-yl)benzoate] |  | 4.2% | 
CC1=C(C(=O)Nc2c(C)cccc2C)C(c2ccsc2)C2=C(CCCC2=O)N1 (stereo not shown) [PT-180, N-(2,6-dimethylphenyl)-2-methyl-5-oxo-4-(thiophen-3-yl)-1,4,5,6,7,8-hexahydroquinoline-3-carboxamide] |  | -4.7% | 
COC(=O)C1=C(C)N(Cc2nnn[nH]2)c2nnnn2C1c1sc2ccccc2c1Br (stereo not shown) [PT-534, methyl 4-((1H-tetrazol-5-yl)methyl)-7-(3-bromobenzo[b]thiophen-2-yl)-5-methyl-4,7-dihydrotetrazolo[1,5-a]pyrimidine-6-carboxylate] |  | 18.2% | 
CC1=C(C(=O)OCCc2nnn[nH]2)C(c2cccc3ccccc23)n2nnnc2N1 (stereo not shown) [PT-247, 2-(1H-tetrazol-5-yl)ethyl 5-methyl-7-(naphthalen-1-yl)-4,7-dihydrotetrazolo[1,5-a]pyrimidine-6-carboxylate] |  | 0.3% | 
